From patent publication US9526915B2, “Methods for regulating cell mitosis by inhibiting serine/threonine phosphatase” (priority 2008, dated 2016)
Entries after “also recorded” stand apart in the source; their conditions may differ.

Assays:
U87MG xenografts = test: U87MG s.c. xenografts in SCID mice, compound 102 and TMZ; type: in vivo
Procedure: (§1) 5×10^6 U87MG cells were inoculated s.c. into each flank of 20 SCID mice. When the xenografts were 0.5+/−0.1 cm (day 0), 5 animals each received i.p. vehicle alone days 1-12 (50% DMSO/H20); compound 102 alone at 1.5 mg/kg days 1-3, 5-7, & 9-11; TMZ alone at 80 mg/kg days 4, 8, 12; or both drugs at the same doses and schedules. If xenografts reached 1800 mm^3, animals were sacrificed. […] B, Survival curve combining the data from the study shown in FIG. 12A, with a second identical study involving a total of 10 animals with two xenografts each. Disease-free survival was defined as no recurrence of either xenografts. […] As in 12A, except that xenografts of SH-SY5Y cells were implanted in one flank only and animals were treated with one additional cycle of drugs, i.e., compound 102 on days 13-15, TMZ, on day 16, and compound 102 plus TMZ on the same schedules. […] E, Western blots of U87 cells in culture 24 hours after exposure to compound 102 at 2.5 uM, TMZ at 25 uM or DOX at 2 uM, and compound 102 plus TMZ or DOX. F, Western blots of U373 cells 24 hours after exposure to compound 102 at 2.5 uM, doxorubicin at 2 uM, and both drugs. G, Western blots of U373 cells 24 hours after exposure to TMZ at 25 uM, okadaic acid at 2 nM, and both drugs.
To determine the impact of altering DNA-damage defense mechanisms by inhibiting PP2A on the efficacy of cytotoxic chemotherapy, the effects of compound 102 combined with TMZ, a non-specific DNA-methylating drug, routinely used for the palliative treatment of GBM patients (Prados et al, 2008), were studied. SCID mice bearing s.c. xenografts of either the GBM line U87MG or the neuroblastoma line SH-SY5Y were treated with vehicle alone, compound 102 alone, TMZ alone, or both drugs at the same doses and schedules as when given alone.

U87 cells = test: U87 GBM cell growth in vitro, viable cells counted; type: cell-based; conditions: Homo sapiens, U-87 MG, read-out: IC50 inhibition of GBM cell growth
Procedure: FIG. 6: Effect of Compound 102 on U87 Cells In Vitro at 1 uM; 2 uM; 5 uM; and 10 uM.
Viable cells were counted (mean and s.d.; n=3; Coulter particle counter).
(§2) Recent work led to the discovery that treatment with the compound, compound 100, and several homologs inhibit the serine/threonine protein phosphatases PP2A (FIG. 1). Compound 102 inhibits PP2A (IC50=˜0.4 μM) more potently than PP1 (IC50=˜80 μM) (FIG. 2). Associated with their inhibition of PP2A, Compound 100 and homologs inhibit a variety of human cancer cell types growing in cell culture and growing in vivo as xenografts implanted subcutaneously in SCID mice (FIG. 3 and FIG. 4). […] Death of these cancer cells is associated with profound disruption of microtubular structures. Such patterns of disordered microtubules during mitosis have been noted after exposure of cancer cells to spindle toxins include such vincristine, vinblastine, taxol, taxotere, ionizing radiation, and DNA damaging agents including anthracyclines and the platinum based compounds. The morphologic appearance of cells displaying these characteristics has been called the mitotic catastrophe phenotype (Castedo et al 2004).

PP2A [1] = target: T1, PP2A (Homo sapiens, UniProt P67775); test: PP2A activity in U87 xenografts and normal brain after i.p. injection; type: in vivo, SCID mice; parameters: PP2A activity in U87 s.c. xenografts (blue) and in normal brain tissue (yellow) of SCID mice; from tissue; host or cells: U87 s.c. xenografts and normal brain tissue of SCID mice; conditions: single dose 1.5 mg/kg i.p.
Procedure: PP2A activity in U87 s.c. xenografts (blue) and in normal brain tissue (yellow) of SCID mice at different times after i.p. injection of 1.5 mg/kg compound 102 (one mouse per point; each lysate was measured in triplicate: mean and s.d.)
as §2
Target sequence in this assay (P67775 whole entry): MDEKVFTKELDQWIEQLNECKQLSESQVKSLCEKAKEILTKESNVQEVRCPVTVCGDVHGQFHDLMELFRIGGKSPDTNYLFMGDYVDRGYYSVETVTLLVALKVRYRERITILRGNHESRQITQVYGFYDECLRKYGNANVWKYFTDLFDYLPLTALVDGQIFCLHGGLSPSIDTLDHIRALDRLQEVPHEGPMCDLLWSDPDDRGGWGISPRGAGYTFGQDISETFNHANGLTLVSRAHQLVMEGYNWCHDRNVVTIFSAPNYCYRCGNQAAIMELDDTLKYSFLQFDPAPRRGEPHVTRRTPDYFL

SH-SY5Y xenografts = test: SH-SY5Y neuroblastoma s.c. xenografts in SCID mice, compound 102 and TMZ; type: in vivo; conditions: as U87MG plus one additional cycle; followed 7 weeks
Procedure: 5×10^6 U87MG cells were inoculated s.c. into each flank of 20 SCID mice. When the xenografts were 0.5+/−0.1 cm (day 0), 5 animals each received i.p. vehicle alone days 1-12 (50% DMSO/H20); compound 102 alone at 1.5 mg/kg days 1-3, 5-7, & 9-11; TMZ alone at 80 mg/kg days 4, 8, 12; or both drugs at the same doses and schedules. If xenografts reached 1800 mm^3, animals were sacrificed. […] B, Survival curve combining the data from the study shown in FIG. 12A, with a second identical study involving a total of 10 animals with two xenografts each. Disease-free survival was defined as no recurrence of either xenografts. […] As in 12A, except that xenografts of SH-SY5Y cells were implanted in one flank only and animals were treated with one additional cycle of drugs, i.e., compound 102 on days 13-15, TMZ, on day 16, and compound 102 plus TMZ on the same schedules. […] E, Western blots of U87 cells in culture 24 hours after exposure to compound 102 at 2.5 uM, TMZ at 25 uM or DOX at 2 uM, and compound 102 plus TMZ or DOX. F, Western blots of U373 cells 24 hours after exposure to compound 102 at 2.5 uM, doxorubicin at 2 uM, and both drugs. G, Western blots of U373 cells 24 hours after exposure to TMZ at 25 uM, okadaic acid at 2 nM, and both drugs. […]

U87MG cells = test: Cell cycle distribution of U87MG cells by FACS; type: cell-based, human; conditions: 48 hours
Procedure: Cells in unsynchronized logarithmic growth were exposed to vehicle or drug and adherent cells and cells in the media were collected. Harvested cells were fixed with 70% cold ethanol for 20 min at −20 degrees, washed with PBS, and stained with 10 ug/ml of PI and 1 ug/ml RNAse in TBS for 30 minutes and analyzed by FACS. A, Flow cytometry profiles of U87 cells after exposures to DMSO only, compound 102 only, 5 uM; TMZ only, 25 uM; compound 102 with TMZ combination, doxorubicin only, 2.0 uM and compound 102 with doxorubicin combination. B, Flow cytometry profiles of U373 cells. Exposures as in A, and C, Schema of proposed mechanisms of compound 102 enhancement of cancer chemotherapy.
We analyzed cell cycle patterns of U87MG and U373 cells 48 hours after exposure to TMZ or DOX alone and in combination with compound 102.

U373 cells = test: Western blots of U373 cells; type: cell-based, human; conditions: U373 (mutant p53), 24 hours
Procedure: as §1

PP2A [2] = target: T1, PP2A; test: PP2A activity in DAOY cells (immunoprecipitated PP2A/Akt-1 complexes, Malachite Green assay); type: cell-based; parameters: PP2A activity from the immunoprecipitated complexes was assayed; endogenous in cells; host or cells: DAOY cells; conditions: 0.15, 0.25, 0.3 μM, 1 hour
Procedure: Cultured DAOY cells were plated in […] flasks. When the cells were 80% confluent, the media was replaced with media containing either 0.15 μM Compound 102, 0.25 μM Compound 102, 0.3 μM Compound 102, or an equivalent volume of PBS vehicle. After 1 hour, the cells were washed three times in a 0.9% normal saline solution. T-PER solution was added to the cells, and cells were prepared for protein extraction. Lysates from each treatment group containing 300 μg of protein were applied to a spin column (Catch and Release v2.0 Reversible Immunoprecipitation System, Millipore, Billerica, Mass.) for immunoprecipitation of PP2A/Akt-1 kinase protein complexes using polyclonal anti-rabbit Akt-1 antibody (Cell Signaling Technology, Danvers, Mass.). PP2A activity from the immunoprecipitated complexes was assayed using a Malachite Green Phosphatase Assay specific for serine/threonine phosphatase activity (Ser/Thr Phosphatase Assay Kit 1, Millipore, Billerica, Mass.).
Target sequence in this assay (P67775 whole entry): as above
Target sequence in this assay (P30153 2-589 partner limits assumed): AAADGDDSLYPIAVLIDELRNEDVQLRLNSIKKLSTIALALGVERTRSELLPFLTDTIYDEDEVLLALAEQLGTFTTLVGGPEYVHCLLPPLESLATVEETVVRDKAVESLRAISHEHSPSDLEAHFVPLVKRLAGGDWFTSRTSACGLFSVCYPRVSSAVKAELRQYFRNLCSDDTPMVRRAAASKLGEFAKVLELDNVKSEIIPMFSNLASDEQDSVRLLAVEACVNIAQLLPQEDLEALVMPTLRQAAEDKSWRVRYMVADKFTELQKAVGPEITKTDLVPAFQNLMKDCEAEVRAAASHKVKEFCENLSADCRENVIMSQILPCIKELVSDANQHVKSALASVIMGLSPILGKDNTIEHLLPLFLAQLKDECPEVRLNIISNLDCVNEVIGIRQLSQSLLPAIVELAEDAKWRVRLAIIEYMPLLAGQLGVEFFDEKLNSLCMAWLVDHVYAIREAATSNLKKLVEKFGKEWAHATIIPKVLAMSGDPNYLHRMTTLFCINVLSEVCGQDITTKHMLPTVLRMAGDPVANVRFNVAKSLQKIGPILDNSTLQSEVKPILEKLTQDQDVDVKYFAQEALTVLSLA

CC(C)(C)OC(=O)N1CCN(C(=O)C2C(C(=O)O)[C@H]3CC[C@@H]2O3)CC1 (some centres unmarked) [Compound 102]
U87MG xenograft growth/regression (U87MG xenografts; compound 102 1.5 mg/kg i.p. days 1-3, 5-7, 9-11, TMZ 80 mg/kg days 4, 8, 12): minimally delayed growth; also recorded: slowed growth | time of sacrifice (xenografts reached 1800 mm^3) (U87MG xenografts; same doses and schedules): 4-5 week | IC50 (U87 cells): ~4 µM | PP2A activity in normal brain tissue (PP2A [1]): inhibits PP2A activity | PP2A activity in s.c. U87 MG xenografts (PP2A [1]): inhibits PP2A activity | NB (SH-SY5Y) xenograft growth (SH-SY5Y xenografts): completely suppressed growth for 2 weeks; also recorded: no growth until week 3 | G1 phase cells (U87MG cells; compound 102 5 uM, TMZ 25 uM, doxorubicin 2.0 uM): decreased | G2/M phase cells (U87MG cells; same concentrations): prominently increased | S phase cells (U87MG cells; same concentrations): modestly increased | molecular changes in pAkt-1, p53, and MDM2 compared with U87MG (U373 cells): same molecular changes | PP2A activity in DAOY cell line (PP2A [2]): Inhibition
